Laboratory results published in patent US10106501B2, “Nuclear receptor modulators” (AbbVie Inc., priority 2015, dated 2018).
Like-named read-outs stand apart in the source and are kept apart here.

Biological target: T1, chimeric human RORγ-Gal4 receptor (Homo sapiens, UniProt P51449)
T1 sequence (P51449 269-508 limits assumed): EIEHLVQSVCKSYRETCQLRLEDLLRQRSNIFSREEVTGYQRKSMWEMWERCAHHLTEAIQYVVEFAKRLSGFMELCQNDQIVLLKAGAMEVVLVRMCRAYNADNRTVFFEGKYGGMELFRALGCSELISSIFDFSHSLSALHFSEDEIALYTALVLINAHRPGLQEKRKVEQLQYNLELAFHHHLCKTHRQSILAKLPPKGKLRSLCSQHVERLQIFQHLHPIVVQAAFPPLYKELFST
Test: transient transactivation assay (RORγ-Gal4 luciferase reporter)
Assay type: cell-based

[1] = Cos-7 cells transfected with RORγ-Gal4 and 5Gal4 pGL3 TK Luc reporter, overnight incubation, T0901317 at 10^-5 M as reference, read-out: IC50

| SMILES | IC50 [1] [nM] | IC50 [nM] |
| --- | --- | --- |
| Cc1cc(C(F)(F)F)cc2c1cc(C(=O)c1c(Cl)ccc(CO)c1Cl)n2C [Example AR, (2,6-dichloro-3-(hydroxymethyl)phenyl)(1,4-dimethyl-6-(trifluoromethyl)-1H-indol-2-yl)methanone] | 1000 to 10000 | – |
| Cc1cc(C#N)cc2c1cc(Cc1c(Cl)ccc(CN3CCOCC3=O)c1Cl)n2C [Example AU, 2-(2,6-dichloro-3-((3-oxomorpholino)methyl)benzyl)-1,4-dimethyl-1H-indole-6-carbonitrile] | – | 100 to 500 |
| CCOC(=O)CN1CCN(C(=O)c2ccc(Cl)c(Cc3cc4c(C)cc(C(F)(F)F)cc4n3C)c2Cl)CC1 [Example AV, ethyl 2-(4-(2,4-dichloro-3-((1,4-dimethyl-6-(trifluoromethyl)-1H-indol-2-yl)methyl)benzoyl)piperazin-1-yl)acetate] | 100 to 500 | – |
| Cc1cc(Br)cc2c1cc(Cc1c(Cl)ccc(C(=O)N3CCOCC3)c1Cl)n2C [Example AX, (3-((6-bromo-1,4-dimethyl-1H-indol-2-yl)methyl)-2,4-dichlorophenyl)(morpholino)methanone] | < 100 | – |
| Cc1cc(N2CCOCC2)cc2c1cc(Cc1c(Cl)ccc(C(=O)N3CCOCC3)c1Cl)n2C [Example AY, (2,4-dichloro-3-((1,4-dimethyl-6-morpholino-1H-indol-2-yl)methyl)phenyl)(morpholino)methanone] | < 100 | – |
| Cc1cc(C(F)(F)F)cc2c1cc(Cc1c(Cl)ccc(C(=O)N3CCC(C(=O)O)C(F)(F)C3)c1Cl)n2C (stereo not shown) [Example AZ, 1-(2,4-dichloro-3-((1,4-dimethyl-6-(trifluoromethyl)-1H-indol-2-yl)methyl)benzoyl)-3,3-difluoropiperidine-4-carboxylic acid] | < 100 | – |
| Cc1cc(C(F)(F)F)cc2c1cc(Cc1c(Cl)ccc(C(=O)N3CCC(C(=O)O)C(C)C3)c1Cl)n2C (stereo not shown) [Example B-1, 1-(2,4-dichloro-3-((1,4-dimethyl-6-(trifluoromethyl)-1H-indol-2-yl)methyl)benzoyl)-3-methylpiperidine-4-carboxylic acid] | < 100 | – |
| Cc1cc(C(F)(F)F)cc2c1cc(Cc1c(Cl)ccc(C(=O)N3CCC(OCC(=O)O)CC3)c1Cl)n2C [Example B-2] | < 100 | – |
| Cc1cc(C(F)(F)F)cc2c1cc(Cc1c(Cl)ccc(C(=O)N3CCC(C(=O)O)C3)c1Cl)n2C (stereo not shown) [Example B-3] | 100 to 500 | – |
| Cc1cc(C(F)(F)F)cc2c1cc(Cc1c(Cl)ccc(C(=O)N3CC(C)(C(=O)O)C3)c1Cl)n2C [Example B-5] | 100 to 500 | – |
| Cc1cc(C(F)(F)F)cc2c1cc(Cc1c(Cl)ccc(C(=O)N3CCC(CC(=O)O)C3)c1Cl)n2C (stereo not shown) [Example B-6] | < 100 | – |
| Cc1cc(C(F)(F)F)cc2c1cc(Cc1c(Cl)ccc(C(=O)N3CCC(CC(=O)O)CC3)c1Cl)n2C [Example B-7] | < 100 | – |
| Cc1cc(C(F)(F)F)cc2c1cc(Cc1c(Cl)ccc(C(=O)N3C[C@@H]4C(C(=O)O)[C@@H]4C3)c1Cl)n2C (stereo partly shown) [Example B-8] | < 100 | – |
| Cc1cc(C(F)(F)F)cc2c1cc(Cc1c(Cl)ccc(C(=O)N3CC(CC(=O)O)C3)c1Cl)n2C [Example B-9] | < 100 | – |
| Cc1cc(C(F)(F)F)cc2c1cc(Cc1c(Cl)ccc(C(=O)N3CCC(O)C(C(=O)O)C3)c1Cl)n2C (stereo not shown) [Example B-10] | 1000 to 10000 | – |
| Cc1cc(C(F)(F)F)cc2c1cc(Cc1c(Cl)ccc(C(=O)N3CCCC(C(=O)O)C3)c1Cl)n2C (stereo not shown) [Example B-11] | 100 to 500 | – |
| Cc1cc(C(F)(F)F)cc2c1cc(Cc1c(Cl)ccc(C(=O)N3CCC(C)(C(=O)O)CC3)c1Cl)n2C [Example B-13] | 100 to 500 | – |
| Cc1cc(C(F)(F)F)cc2c1cc(Cc1c(Cl)ccc(C(=O)N3CCC(F)(C(=O)O)CC3)c1Cl)n2C [Example B-14] | 100 to 500 | – |
| COC[C@@H]1CN(C(=O)c2ccc(Cl)c(Cc3cc4c(C)cc(C(F)(F)F)cc4n3C)c2Cl)C[C@H]1C(=O)O [Example B-15] | 1000 to 10000 | – |
| Cc1cc(C(F)(F)F)cc2c1cc(Cc1c(Cl)ccc(C(=O)N3C[C@@]4(C(=O)O)CC[C@@H]3C4)c1Cl)n2C [Example B-16] | 100 to 500 | – |
| Cc1cc(C(F)(F)F)cc2c1cc(Cc1c(Cl)ccc(C(=O)N3CC4(CC(CC(=O)O)C4)C3)c1Cl)n2C [Example B-17] | < 100 | – |
| Cc1cc(C(F)(F)F)cc2c1cc(Cc1c(Cl)ccc(C(=O)N3CC4(CC(C(=O)O)C4)C3)c1Cl)n2C [Example B-18] | < 100 | – |

| SMILES | IC50 [1] [nM] | IC50 [nM] |
| --- | --- | --- |
| Cc1cc(C(F)(F)F)cc2c1cc(Cc1c(Cl)ccc(C(=O)N3CCC(C(C)C(=O)O)CC3)c1Cl)n2C (stereo not shown) [Example B-19] | < 100 | – |
| Cc1cc(C(F)(F)F)cc2c1cc(Cc1c(Cl)ccc(C(=O)N3CCC(C(O)C(=O)O)CC3)c1Cl)n2C (stereo not shown) [Example B-20] | < 100 | – |
| Cc1cc(C(F)(F)F)cc2c1cc(Cc1c(Cl)ccc(C(=O)N3CCC(CC(=O)O)C(C)C3)c1Cl)n2C (stereo not shown) [Example B-21] | < 100 | – |
| Cc1cc(C(F)(F)F)cc2c1cc(Cc1c(Cl)ncc(C(=O)N3CCC(CC(=O)O)CC3)c1Cl)n2C [Example B-22] | < 100 | – |
| Cc1cc(C(F)(F)F)cc2c1cc(Cc1c(Cl)ccc(C(=O)N3CCC(C(C)(C)C(=O)O)CC3)c1Cl)n2C [Example B-23] | < 100 | – |
| Cc1cc(C(F)(F)F)cc2c1cc(Cc1c(Cl)ccc(C(=O)N3CCC(CCC(=O)O)CC3)c1Cl)n2C [Example B-24] | < 100 | – |
| Cc1cc(C(F)(F)F)cc2c1cc(Cc1c(Cl)ccc(C(=O)N[C@H]3CC[C@@H](C(=O)O)CC3)c1Cl)n2C [Example B-25] | < 100 | – |
| Cc1cc(C(F)(F)F)cc2c1cc(Cc1c(Cl)ccc(C(=O)N3CC[C@H](C(=O)O)[C@@H](C)C3)c1Cl)n2C [Example B-26] | < 100 | – |
| Cc1cc(C(F)(F)F)cc2c1cc(Cc1c(Cl)ccc(C(=O)N3CCC(C(=O)O)C(F)C3)c1Cl)n2C (stereo not shown) [Example BA, 1-(2,4-dichloro-3-((1,4-dimethyl-6-(trifluoromethyl)-1H-indol-2-yl)methyl)benzoyl)-3-fluoropiperidine-4-carboxylic acid] | < 100 | – |
| Cc1ncc(C(=O)N2CCOCC2)c(C)c1Cc1cc2c(C)cc(C(F)(F)F)cc2n1C [Example BB, (5-((1,4-dimethyl-6-(trifluoromethyl)-1H-indol-2-yl)methyl)-4,6-dimethylpyridin-3-yl)(morpholino)methanone] | 500 to 1000 | – |
| Cc1ncc(C(=O)N2CCC(CC(=O)O)CC2)c(C)c1Cc1cc2c(C)cc(C(F)(F)F)cc2n1C [Example BC, 2-(1-(5-((1,4-dimethyl-6-(trifluoromethyl)-1H-indol-2-yl)methyl)-4,6-dimethylnicotinoyl)piperidin-4-yl)acetic acid] | 100 to 500 | – |
| Cc1ncc(C(=O)N2CCC(C3COC3)CC2)c(C)c1C(=O)c1cc2c(C)cc(C#N)cc2n1C [Example BD, 2-[2,4-dimethyl-5-[4-(oxetan-3-yl)piperidine-1-carbonyl]pyridine-3-carbonyl]-1,4-dimethyl-indole-6-carbonitrile] | 1000 to 10000 | – |
| Cc1cc(C#N)cc2c1cc(Cc1c(Cl)cnc(C(=O)N3CCC(CC(=O)O)CC3)c1Cl)n2C [Example BG, 2-[1-[3,5-dichloro-4-[(6-cyano-1,4-dimethyl-indol-2-yl)methyl]pyridine-2-carbonyl]-4-piperidyl]acetic acid] | 500 to 1000 | – |
| Cc1cc(C(F)(F)F)cc2c1cc(Cc1c(Cl)ncc(C(=O)N3CCOCC3)c1Cl)n2C [Example BH, (4,6-dichloro-5-((1,4-dimethyl-6-(trifluoromethyl)-1H-indol-2-yl)methyl)pyridin-3-yl)(morpholino)methanone] | < 100 | – |
| Cc1cc(C(F)(F)F)cc2c1cc(Cc1c(Cl)cn(CCC(=O)O)c(=O)c1Cl)n2C [Example BI, 3-(3,5-dichloro-4-((1,4-dimethyl-6-(trifluoromethyl)-1H-indol-2-yl)methyl)-2-oxopyridin-1(2H)-yl)propanoic acid] | 1000 to 10000 | – |
| Cc1cc(C(F)(F)F)cc2c1nc(Cc1c(Cl)ccc(C(=O)N3C[C@@H]4[C@H](C3)[C@H]4C(=O)O)c1Cl)n2C [Example BL, (1R,5S,6r)-3-(2,4-dichloro-3-((1,4-dimethyl-6-(trifluoromethyl)-1H-benzo[d]imidazol-2-yl)methyl)benzoyl)-3-azabicyclo[3.1.0]hexane-6-carboxylic acid] | 1000 to 10000 | – |
| Cc1cc(C)c2nc(Cc3c(Cl)ccc(C(=O)N4CCOCC4)c3Cl)n(C)c2c1 [Example BO, (2,4-dichloro-3-((1,4,6-trimethyl-1H-benzo[d]imidazol-2-yl)methyl)phenyl)(morpholino)methanone] | 500 to 1000 | – |
| Cc1ccc(C(=O)N2CCOCC2)c(C)c1Cc1nc2c(C)cc(Br)cc2n1C [Example BR, (3-((6-bromo-1,4-dimethyl-1H-benzo[d]imidazol-2-yl)methyl)-2,4-dimethylphenyl)(morpholino)methanone] | 100 to 500 | – |
| Cc1cc(C(F)(F)F)cc2c1nc(C(=O)c1c(Cl)ccc(C(=O)N3CCOCC3)c1Cl)n2C [Example BS, (2,4-dichloro-3-(1,4-dimethyl-6-(trifluoromethyl)-1H-benzo[d]imidazole-2-carbonyl)phenyl)(morpholino)methanone] | 100 to 500 | – |
| Cc1cc(C(N)=O)cc2c1nc(C(=O)c1c(Cl)ccc(C(=O)N3CCOCC3)c1Cl)n2C [Example BT, 2-(2,6-dichloro-3-(morpholine-4-carbonyl)benzoyl)-1,4-dimethyl-1H-benzo[d]imidazole-6-carboxamide] | 1000 to 10000 | – |
| Cc1cc(C(F)(F)F)cc2c1nc(Cc1c(Cl)ccc(C(=O)N3CCC(CC(=O)O)CC3)c1Cl)n2C [Example BU, 2-(1-(2,4-dichloro-3-((1,4-dimethyl-6-(trifluoromethyl)-1H-benzo[d]imidazol-2-yl)methyl)benzoyl)piperidin-4-yl)acetic acid] | < 100 | – |
